Consider four compounds from paper PMC7026418, “The kinase polypharmacology landscape of clinical PARP inhibitors” (Scientific Reports, 2020).

Holding throughout (assay): biochemical
Parameters in all cases: DiscoveRx KINOMEscan active site-directed competition binding; percent of control kinase bound to immobilised ligand

Assay [1] deals with T1, ABL1-phosphorylated (Homo sapiens, UniProt P00519).
T1 construct: phosphorylated

Assay [2] addresses T2, ACVR1 (Homo sapiens, UniProt Q04771).
T2 sequence (Q04771 1-509): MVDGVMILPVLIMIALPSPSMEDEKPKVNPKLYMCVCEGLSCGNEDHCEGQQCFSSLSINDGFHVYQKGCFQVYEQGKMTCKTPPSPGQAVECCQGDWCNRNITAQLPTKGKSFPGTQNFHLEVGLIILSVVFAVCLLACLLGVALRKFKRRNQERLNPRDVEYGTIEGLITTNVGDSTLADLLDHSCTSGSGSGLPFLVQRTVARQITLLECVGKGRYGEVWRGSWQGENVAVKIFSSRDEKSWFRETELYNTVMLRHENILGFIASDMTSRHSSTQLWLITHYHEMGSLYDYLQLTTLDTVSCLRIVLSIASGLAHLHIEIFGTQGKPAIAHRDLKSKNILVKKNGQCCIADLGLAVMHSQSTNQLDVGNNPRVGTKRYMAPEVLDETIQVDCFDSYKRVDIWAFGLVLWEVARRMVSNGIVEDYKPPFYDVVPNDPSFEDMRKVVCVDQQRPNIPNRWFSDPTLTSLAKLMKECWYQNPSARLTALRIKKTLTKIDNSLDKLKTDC

Assay [3] concerns the target AKT3 (Homo sapiens, UniProt Q9Y243).
Assay [4] deals with T3, AURKA (Homo sapiens, UniProt O14965).
T3 sequence (O14965 1-403): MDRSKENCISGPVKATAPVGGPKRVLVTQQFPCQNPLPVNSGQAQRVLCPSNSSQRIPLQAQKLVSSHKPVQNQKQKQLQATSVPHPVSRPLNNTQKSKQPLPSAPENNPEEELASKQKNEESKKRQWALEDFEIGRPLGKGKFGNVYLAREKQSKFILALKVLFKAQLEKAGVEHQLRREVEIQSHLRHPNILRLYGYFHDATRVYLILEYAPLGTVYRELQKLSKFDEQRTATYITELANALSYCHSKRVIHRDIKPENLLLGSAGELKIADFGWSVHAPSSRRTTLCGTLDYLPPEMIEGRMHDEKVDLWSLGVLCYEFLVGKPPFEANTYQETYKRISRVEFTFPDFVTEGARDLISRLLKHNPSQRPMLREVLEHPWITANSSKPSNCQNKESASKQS

The target of assay [5] is T4, AURKC (Homo sapiens, UniProt Q9UQB9).
T4 sequence (Q9UQB9 1-309): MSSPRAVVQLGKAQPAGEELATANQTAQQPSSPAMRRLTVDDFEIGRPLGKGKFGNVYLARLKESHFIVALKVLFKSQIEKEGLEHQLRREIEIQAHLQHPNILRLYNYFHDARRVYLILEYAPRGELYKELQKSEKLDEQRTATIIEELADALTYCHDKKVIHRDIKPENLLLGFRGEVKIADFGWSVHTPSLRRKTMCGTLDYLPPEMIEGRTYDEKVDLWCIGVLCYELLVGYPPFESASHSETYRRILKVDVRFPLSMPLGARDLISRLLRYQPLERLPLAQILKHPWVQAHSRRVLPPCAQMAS

The target of assay [6] is T5, NEK11 (Homo sapiens, UniProt Q8NG66).
T5 sequence (Q8NG66 1-645): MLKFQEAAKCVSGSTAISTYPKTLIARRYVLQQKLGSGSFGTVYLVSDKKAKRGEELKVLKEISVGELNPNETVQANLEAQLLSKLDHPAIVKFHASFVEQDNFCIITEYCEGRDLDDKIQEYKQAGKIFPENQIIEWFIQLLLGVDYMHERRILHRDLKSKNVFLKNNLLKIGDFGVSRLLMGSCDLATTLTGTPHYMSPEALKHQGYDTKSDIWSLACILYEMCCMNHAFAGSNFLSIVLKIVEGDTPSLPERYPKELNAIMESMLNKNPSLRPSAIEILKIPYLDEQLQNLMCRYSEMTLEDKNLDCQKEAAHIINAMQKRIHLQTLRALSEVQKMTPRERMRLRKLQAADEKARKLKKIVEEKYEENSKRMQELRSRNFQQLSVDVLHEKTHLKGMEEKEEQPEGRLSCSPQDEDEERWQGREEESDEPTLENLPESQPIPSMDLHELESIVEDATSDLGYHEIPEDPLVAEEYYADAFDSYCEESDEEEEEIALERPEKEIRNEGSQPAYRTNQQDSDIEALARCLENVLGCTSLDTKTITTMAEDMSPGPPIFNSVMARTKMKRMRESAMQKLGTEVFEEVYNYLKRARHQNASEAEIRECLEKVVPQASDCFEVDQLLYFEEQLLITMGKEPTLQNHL

Assay [7] concerns the target SIK2 (Homo sapiens, UniProt Q9H0K1).
The mark [8] stands for this setting: read-out: Niraparib (MK-4827) / %Ctrl @ 10000nM.
Setting [9] is: read-out: Talazoparib (BMN 673) / %Ctrl @ 10000nM.
Where [10] appears, read: read-out: Rucaparib / %Ctrl @ 10000nM, binding competition, % of control.
The mark [11] stands for this setting: read-out: Olaparib / %Ctrl @ 10000nM.

Read-outs that look alike come from different tables or passages of the source.

AKT3, sequence (Q9Y243 whole entry): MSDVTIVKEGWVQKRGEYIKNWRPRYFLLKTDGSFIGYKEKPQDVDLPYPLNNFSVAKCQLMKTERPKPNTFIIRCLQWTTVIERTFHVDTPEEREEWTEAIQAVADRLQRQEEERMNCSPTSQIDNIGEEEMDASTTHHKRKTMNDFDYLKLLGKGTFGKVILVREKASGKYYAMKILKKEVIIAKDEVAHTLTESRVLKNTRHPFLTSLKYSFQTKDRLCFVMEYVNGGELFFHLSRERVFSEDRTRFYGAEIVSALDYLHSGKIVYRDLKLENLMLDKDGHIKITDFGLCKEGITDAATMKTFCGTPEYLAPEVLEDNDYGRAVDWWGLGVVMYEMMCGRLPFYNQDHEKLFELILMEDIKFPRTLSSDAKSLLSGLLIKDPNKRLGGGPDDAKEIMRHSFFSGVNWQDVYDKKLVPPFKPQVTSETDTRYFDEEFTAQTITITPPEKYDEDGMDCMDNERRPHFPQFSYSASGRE
SIK2, sequence (Q9H0K1 whole entry): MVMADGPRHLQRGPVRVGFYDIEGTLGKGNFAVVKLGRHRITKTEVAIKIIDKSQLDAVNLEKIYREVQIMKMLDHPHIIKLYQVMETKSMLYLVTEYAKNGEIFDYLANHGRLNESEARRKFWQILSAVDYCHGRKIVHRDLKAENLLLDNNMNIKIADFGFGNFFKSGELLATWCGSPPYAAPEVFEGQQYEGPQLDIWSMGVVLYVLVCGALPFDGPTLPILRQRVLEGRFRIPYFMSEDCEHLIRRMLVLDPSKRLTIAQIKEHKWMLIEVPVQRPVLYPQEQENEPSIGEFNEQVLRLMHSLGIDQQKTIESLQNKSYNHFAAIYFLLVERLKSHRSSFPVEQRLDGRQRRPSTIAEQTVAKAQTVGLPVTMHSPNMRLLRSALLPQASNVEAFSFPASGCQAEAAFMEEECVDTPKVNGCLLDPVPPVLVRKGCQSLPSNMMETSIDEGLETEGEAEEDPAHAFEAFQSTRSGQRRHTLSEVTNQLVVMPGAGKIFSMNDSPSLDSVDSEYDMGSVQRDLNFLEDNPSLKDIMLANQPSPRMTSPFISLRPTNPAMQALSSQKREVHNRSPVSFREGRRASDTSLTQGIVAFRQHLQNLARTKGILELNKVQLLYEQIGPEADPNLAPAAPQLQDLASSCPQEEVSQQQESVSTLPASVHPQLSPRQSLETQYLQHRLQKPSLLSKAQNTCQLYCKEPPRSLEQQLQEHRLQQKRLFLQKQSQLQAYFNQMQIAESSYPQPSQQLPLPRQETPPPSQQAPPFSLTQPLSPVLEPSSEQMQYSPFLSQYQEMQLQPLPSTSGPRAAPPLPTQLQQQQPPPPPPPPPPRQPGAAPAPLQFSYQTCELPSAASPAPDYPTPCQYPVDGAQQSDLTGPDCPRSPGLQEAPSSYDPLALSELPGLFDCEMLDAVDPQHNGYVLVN
T1 sequence (P00519 whole entry): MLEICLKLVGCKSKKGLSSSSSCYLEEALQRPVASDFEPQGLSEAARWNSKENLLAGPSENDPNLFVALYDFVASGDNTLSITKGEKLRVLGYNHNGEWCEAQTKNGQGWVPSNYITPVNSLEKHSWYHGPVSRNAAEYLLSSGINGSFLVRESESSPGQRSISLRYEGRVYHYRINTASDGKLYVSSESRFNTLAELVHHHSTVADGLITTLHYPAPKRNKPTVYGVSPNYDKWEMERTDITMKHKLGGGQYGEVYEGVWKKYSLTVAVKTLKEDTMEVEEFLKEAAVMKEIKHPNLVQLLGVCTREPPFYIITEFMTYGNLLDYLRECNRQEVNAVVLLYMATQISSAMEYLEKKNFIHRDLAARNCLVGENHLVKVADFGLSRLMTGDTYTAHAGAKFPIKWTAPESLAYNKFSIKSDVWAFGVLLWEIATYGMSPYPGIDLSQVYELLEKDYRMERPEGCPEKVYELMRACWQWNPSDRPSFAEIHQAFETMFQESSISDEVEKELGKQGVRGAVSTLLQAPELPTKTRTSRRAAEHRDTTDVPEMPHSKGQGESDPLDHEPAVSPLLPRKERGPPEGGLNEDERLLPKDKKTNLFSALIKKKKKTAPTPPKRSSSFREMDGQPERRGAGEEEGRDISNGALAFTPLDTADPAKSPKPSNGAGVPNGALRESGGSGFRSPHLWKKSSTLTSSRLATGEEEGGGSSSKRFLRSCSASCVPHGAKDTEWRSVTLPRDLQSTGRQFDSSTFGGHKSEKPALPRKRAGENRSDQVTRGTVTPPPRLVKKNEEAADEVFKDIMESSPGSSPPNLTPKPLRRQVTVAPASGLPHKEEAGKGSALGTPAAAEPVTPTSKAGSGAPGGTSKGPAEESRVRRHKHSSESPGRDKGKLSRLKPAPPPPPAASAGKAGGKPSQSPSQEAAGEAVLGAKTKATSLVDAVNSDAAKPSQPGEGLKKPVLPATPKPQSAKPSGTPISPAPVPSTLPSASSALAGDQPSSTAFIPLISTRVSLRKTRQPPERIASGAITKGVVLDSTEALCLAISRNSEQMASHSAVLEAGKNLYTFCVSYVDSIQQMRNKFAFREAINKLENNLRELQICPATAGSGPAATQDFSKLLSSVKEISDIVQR

`NC(=O)c1cccc2cn(-c3ccc([C@@H]4CCCNC4)cc3)nc12` [Niraparib]: the percent of control binding at 10 µM in assay [1] (setting [8]) was found to be 80%; in assay [2] (setting [8]) it was 83%; in assay [3] (setting [8]) it was 97%; in assay [4] (setting [8]), 25%; in assay [5] (setting [8]) it was 56%; in assay [6] (setting [8]) it was 99%. Besides, the percent of control binding at 10 µM in assay [7] (setting [8]) turned out to be 91%.

For `Cn1ncnc1[C@H]1c2n[nH]c(=O)c3cc(F)cc(c23)N[C@@H]1c1ccc(F)cc1` [Talazoparib], the percent of control binding at 10 µM in assay [1] (setting [9]) is 100%; in assay [2] (setting [9]), 95%; in assay [3] (setting [9]), 88%; in assay [4] (setting [9]), 84%; in assay [5] (setting [9]), 100%; in assay [6] (setting [9]) it was 100%. Also, the percent of control binding at 10 µM in assay [7] (setting [9]) is 100%.

Consider `CNCc1ccc(-c2[nH]c3cc(F)cc4c3c2CCNC4=O)cc1` [Rucaparib], for which the percent of control binding at 10 µM in assay [1] (setting [10]) was 98%; in assay [2] (setting [10]), 92%; in assay [3] (setting [10]), 100%; in assay [4] (setting [10]) it was 75%; in assay [5] (setting [10]), 78%; in assay [6] (setting [10]), 91%. The percent of control binding at 10 µM in assay [7] (setting [10]) is 96%.

Turning to `O=C(c1cc(Cc2n[nH]c(=O)c3ccccc23)ccc1F)N1CCN(C(=O)C2CC2)CC1` [Olaparib], the percent of control binding at 10 µM in assay [1] (setting [11]) amounted to 98%; in assay [2] (setting [11]) it was 96%; in assay [3] (setting [11]), 100%; in assay [4] (setting [11]), 91%; in assay [5] (setting [11]) it was 97%; in assay [6] (setting [11]), 82%. In addition, in assay [7] (setting [11]), the percent of control binding at 10 µM is 100%.
